The target of data set [1] is T1, Y4 receptor (Homo sapiens, UniProt P50391).
T1 construct: host or cells: ACTOne HEK-293 cells
In words: Y4 receptor ACTOne based FLIPR assay (cAMP biosensor). It is filed as cell-based. An excerpt: ACTOne™ is an easily scaleable cAMP biosensor HTS platform for measurement of Gs and Gi coupled 7™ receptor signalling from BD Biosciences (San Jose, Calif.). The cells express a biosensor developed around a modified rat olfactory cyclic nucleotide gated (CNG) calcium channel—a fairly non-discriminatory ion channel that responds to cAMP and cGMP. The CNG has been engineered to be cAMP selective and thus function as a cAMP responsive biosensor that signals through calcium or membrane potential responsive dyes. Y2 or Y4 receptor expressing ACTOne HEK-293 cells are obtained from BD Biosciences. The cells are loaded with a calcium responsive dye that only distributes in the cytoplasm. Probenecid, an inhibitor of the organic anion transporter is added to prevent the dye from leaving the cell. A phosphodiesterase inhibitor is added to prevent formatted cAMP from being degraded. Isoproterenol (an β1/β2 agonist) is added to activate the adenylate cyclase. When an Y2 or Y4 receptor agonist is added, the adenylate cyclase is inactivated. The decreased calcium concentration in the cytoplasm is then detected as an increase in fluorescence. Together with the test substance, Isoproterenol at a concentration matching EC80, is added to all wells. • The cells are plated out in Greiner 384-well plates. […] The plates are covered with tinfoil to avoid light (the dye can be excited by the daylight, which results in higher baseline and variation). • The FLIPR (FLIPRtetra from Molecular Devices, CA, USA) adds 1 μl sample and 1 μl isoproterenol (0.05 μM final concentration) at the same time. • The fluorescence signal from the wells is measured 330 seconds after sample addition on the FLIPR.

In data set [2] the target is T2, Y2 receptor (Homo sapiens, UniProt P49146).
T2 construct: host or cells: ACTOne HEK-293 cells
T2 sequence (P49146 1-381): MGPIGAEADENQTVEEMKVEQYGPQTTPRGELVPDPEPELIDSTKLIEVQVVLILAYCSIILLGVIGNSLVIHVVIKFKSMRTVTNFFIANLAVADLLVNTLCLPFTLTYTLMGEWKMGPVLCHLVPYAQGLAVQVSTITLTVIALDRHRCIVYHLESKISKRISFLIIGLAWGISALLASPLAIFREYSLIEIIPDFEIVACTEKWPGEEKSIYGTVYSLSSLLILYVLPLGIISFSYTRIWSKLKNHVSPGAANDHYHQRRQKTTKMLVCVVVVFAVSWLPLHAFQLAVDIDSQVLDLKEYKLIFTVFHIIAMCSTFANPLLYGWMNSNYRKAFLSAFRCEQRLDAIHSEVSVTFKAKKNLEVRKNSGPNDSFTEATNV
Description: Y2 receptor ACTOne based FLIPR assay (cAMP biosensor). The class given is cell-based.

Data set [3] in a line: Mini-pig PK assay (plasma half-life). The settings on record: Göttingen, minipig. Summed up: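 Catheterised mini-pigs received compound i.v. at 10 nmol/kg in pH 4.0 phosphate/NaCl/tween vehicle, or alternatively i.v. or s.c. at 1–30 nmol/kg in pH 8.0 K2HPO4/tween. Stabilised plasma was sampled up to 13 days and assayed by LC-MS (LLOQ 2 nM). Half-life came from non-compartmental analysis of individual animal profiles.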

Setting [4] is: Table 2, PP analogues, ACTOne HEK-293 cells, read-out: Y2 cAMP EC50.
Where [5] appears, read: Table 2, PP analogues, ACTOne HEK-293 cells, read-out: Y4 cAMP EC50.

Structures are written as SMILES. Read-outs that look alike come from different tables or passages of the source. *1 amine or outer side, *2 acyl side, *3 side chain or, on linkers, in order; H or OH if unused. Where a SMILES comes first, the peptide text is derived from it. Side-chain parts run from the residue outwards. The star is where a group is joined. C20 diacid = O=C(O)CCCCCCCCCCCCCCCCCCC(=O)*; C18 diacid = O=C(O)CCCCCCCCCCCCCCCCC(=O)*; γGlu = O=C(O)[C@H](CCC(=O)[*:2])N[*:1]; Trx = NC[C@H]1CC[C@H](C(=O)O)CC1; AEEA = NCCOCCOCC(=O)O Where only a bound is given, the exact number is not on record here.

T1 sequence (P50391 whole entry): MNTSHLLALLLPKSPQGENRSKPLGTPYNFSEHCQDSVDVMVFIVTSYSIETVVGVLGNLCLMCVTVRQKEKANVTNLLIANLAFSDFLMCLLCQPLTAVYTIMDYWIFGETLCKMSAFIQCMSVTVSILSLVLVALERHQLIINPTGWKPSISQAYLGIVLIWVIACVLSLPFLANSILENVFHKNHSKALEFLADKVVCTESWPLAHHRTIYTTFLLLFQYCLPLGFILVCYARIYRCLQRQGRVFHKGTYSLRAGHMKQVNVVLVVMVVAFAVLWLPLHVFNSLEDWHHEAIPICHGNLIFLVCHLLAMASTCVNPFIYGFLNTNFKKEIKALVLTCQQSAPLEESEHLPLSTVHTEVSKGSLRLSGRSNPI

Regarding `CC[C@H](C)[C@H](NC(=O)[C@H](Cc1ccc(O)cc1)NC(=O)[C@H](CCCNC(=N)N)NC(=O)[C@H](CCCNC(=N)N)NC(=O)[C@H](CC(C)C)NC(=O)[C@H](CC(=O)O)NC(=O)[C@H](C)NC(=O)[C@H](C)NC(=O)[C@H](Cc1ccc(O)cc1)NC(=O)[C@H](CCC(N)=O)NC(=O)[C@H](C)NC(=O)[C@H](CC(C)C)NC(=O)[C@H](CCC(N)=O)NC(=O)[C@H](CCC(=O)O)NC(=O)[C@@H]1CCCN1C(=O)[C@H](CCCCNC(=O)COCCOCCNC(=O)COCCOCCNC(=O)CC[C@H](NC(=O)[C@H]1CC[C@H](CNC(=O)CCCCCCCCCCCCCCCCCCC(=O)O)CC1)C(=O)O)NC(=O)[C@H](C)NC(=O)[C@H](CC(N)=O)NC(=O)[C@H](CC(=O)O)NC(=O)CNC(=O)[C@@H]1CCCN1C(=O)[C@H](Cc1ccc(O)cc1)NC(=O)[C@@H](NC(=O)[C@@H]1CCCN1C(=O)[C@H](CCC(=O)O)NC(=O)[C@H](CC(C)C)NC(=O)[C@@H]1CCCN1C(=O)[C@H](C)N)C(C)C)C(=O)N[C@@H](CC(N)=O)C(=O)N[C@H](C(=O)N[C@@H](CC(C)C)C(=O)N[C@H](C(=O)N[C@@H](CCCNC(=N)N)C(=O)N[C@@H](CCC(N)=O)C(=O)N[C@@H](CCCNC(=N)N)C(=O)N[C@@H](Cc1ccc(O)cc1)C(N)=O)[C@@H](C)O)C(C)C` [SEQ ID NO: 17, N-epsilon13-[2-(2-{2-[2-(2-{2-[(S)-4-Carboxy-4-({trans-4-[(19-carboxynonadecanoylamino)methyl]cyclohexanecarbonyl}amino)butyrylamino]-ethoxy}ethoxy)acetylamino]ethoxy}ethoxy)acetyl][Lys13,Leu17,Val30,Gln34]hPP(1-36)] (H-APLEPVYPGDNAK([AEEA-AEEA-γGlu-Trx-C20 diacid])PEQLAQYAADLRRYINVLTRQRY-NH2; N-terminus and C-terminus assumed), a half-maximal response in data set [1] (EC50) required 7 nM.

On to `CC[C@H](C)[C@H](NC(=O)[C@H](Cc1ccc(O)cc1)NC(=O)[C@H](CCCNC(=N)N)NC(=O)[C@H](CCCNC(=N)N)NC(=O)[C@H](CC(C)C)NC(=O)[C@H](CC(=O)O)NC(=O)[C@H](C)NC(=O)[C@H](C)NC(=O)[C@H](Cc1ccc(O)cc1)NC(=O)[C@H](CCC(N)=O)NC(=O)[C@H](C)NC(=O)[C@H](CC(C)C)NC(=O)[C@H](CCC(N)=O)NC(=O)[C@H](CCC(=O)O)NC(=O)[C@@H]1CCCN1C(=O)[C@@H](NC(=O)[C@H](C)NC(=O)[C@H](CCCCNC(=O)COCCOCCNC(=O)COCCOCCNC(=O)CC[C@H](NC(=O)[C@H]1CC[C@H](CNC(=O)CCCCCCCCCCCCCCCCCCC(=O)O)CC1)C(=O)O)NC(=O)[C@H](CC(=O)O)NC(=O)CNC(=O)[C@@H]1CCCN1C(=O)[C@H](Cc1ccc(O)cc1)NC(=O)[C@@H](NC(=O)[C@@H]1CCCN1C(=O)[C@H](CCC(=O)O)NC(=O)[C@H](CC(C)C)NC(=O)[C@@H]1CCCN1)C(C)C)[C@@H](C)O)C(=O)N[C@@H](CC(N)=O)C(=O)N[C@@H](CC(C)C)C(=O)N[C@@H](CC(C)C)C(=O)N[C@H](C(=O)N[C@@H](CCCNC(=N)N)C(=O)N1CCC[C@H]1C(=O)N[C@@H](CCCNC(=N)N)C(=O)N[C@@H](Cc1ccc(O)cc1)C(N)=O)[C@@H](C)O` [SEQ ID NO: 29, N-epsilon11-[2-(2-{2-[2-(2-{2-[(S)-4-Carboxy-4-({trans-4-[(19-carboxynonadecanoylamino)methyl]cyclohexanecarbonyl}amino)butyrylamino]-ethoxy}ethoxy)acetylamino]ethoxy}ethoxy)acetyl][Lys11,Leu17,Leu30]hPP2-36] (H-PLEPVYPGDK([AEEA-AEEA-γGlu-Trx-C20 diacid])ATPEQLAQYAADLRRYINLLTRPRY-NH2; N-terminus and C-terminus assumed), for which the results for the EC50 in data set [2] and in data set [1] were above 1000 nM and 2 nM, respectively. Moreover, the half-life (commonly how long it takes for the measured level to halve) in data set [3] (in vivo, iv, 1 nmol/kg) was 23 h; in data set [3] (in vivo, iv, 30 nmol/kg), 27 h.

In the case of `CC[C@H](C)[C@H](NC(=O)[C@H](Cc1ccc(O)cc1)NC(=O)[C@H](CCCNC(=N)N)NC(=O)[C@H](CCCNC(=N)N)NC(=O)[C@H](CC(C)C)NC(=O)[C@H](CC(=O)O)NC(=O)[C@H](C)NC(=O)[C@H](C)NC(=O)[C@H](Cc1ccc(O)cc1)NC(=O)[C@H](CCC(N)=O)NC(=O)[C@H](C)NC(=O)[C@H](CC(C)C)NC(=O)[C@H](CCC(N)=O)NC(=O)[C@H](CCC(=O)O)NC(=O)[C@@H]1CCCN1C(=O)[C@@H](NC(=O)[C@H](C)NC(=O)[C@H](CCCCNC(=O)COCCOCCNC(=O)COCCOCCNC(=O)CC[C@H](NC(=O)CCCCCCCCCCCCCCCCC(=O)O)C(=O)O)NC(=O)[C@H](CC(=O)O)NC(=O)CNC(=O)[C@@H]1CCCN1C(=O)[C@H](Cc1ccc(O)cc1)NC(=O)[C@@H](NC(=O)[C@@H]1CCCN1C(=O)[C@H](CCC(=O)O)NC(=O)[C@H](CC(C)C)NC(=O)[C@@H]1CCCN1)C(C)C)[C@@H](C)O)C(=O)N[C@@H](CC(N)=O)C(=O)N[C@@H](CC(C)C)C(=O)N[C@@H](CC(C)C)C(=O)N[C@H](C(=O)N[C@@H](CCCNC(=N)N)C(=O)N1CCC[C@H]1C(=O)N[C@@H](CCCNC(=N)N)C(=O)N[C@@H](Cc1ccc(O)cc1)C(N)=O)[C@@H](C)O` [SEQ ID NO: 30, N-epsilon11-[2-(2-{2-[2-(2-{2-[(S)-4-Carboxy-4-(17-carboxyheptadecanoylamino)butyrylamino]ethoxy}ethoxy)acetylamino]-ethoxy}ethoxy)acetyl][Lys11,Leu17,Leu30]hPP2-36] (H-PLEPVYPGDK([AEEA-AEEA-γGlu-C18 diacid])ATPEQLAQYAADLRRYINLLTRPRY-NH2; N-terminus and C-terminus assumed), the EC50 (in general, the concentration needed to bring the measured effect to its halfway point) was above 1000 nM in data set [2] (setting [4]) and 1 nM in data set [1] (setting [5]). Moreover, in data set [3] (iv, […]), the half-life was 22 h.

For the molecule `CC[C@H](C)[C@H](NC(=O)[C@H](Cc1ccc(O)cc1)NC(=O)[C@H](CCCNC(=N)N)NC(=O)[C@H](CCCNC(=N)N)NC(=O)[C@H](CC(C)C)NC(=O)[C@H](CC(=O)O)NC(=O)[C@H](C)NC(=O)[C@H](C)NC(=O)[C@H](Cc1ccc(O)cc1)NC(=O)[C@H](CCC(N)=O)NC(=O)[C@H](C)NC(=O)[C@H](CC(C)C)NC(=O)[C@H](CCC(N)=O)NC(=O)[C@H](CCC(=O)O)NC(=O)[C@@H]1CCCN1C(=O)[C@@H](NC(=O)[C@H](C)NC(=O)[C@H](CC(N)=O)NC(=O)[C@H](CC(=O)O)NC(=O)CNC(=O)[C@@H]1CCCN1C(=O)[C@H](Cc1ccc(O)cc1)NC(=O)[C@@H](NC(=O)[C@@H]1CCCN1C(=O)[C@H](CCC(=O)O)NC(=O)[C@H](CC(C)C)NC(=O)[C@@H]1CCCN1)C(C)C)[C@@H](C)O)C(=O)N[C@@H](CC(N)=O)C(=O)N[C@@H](CC(C)C)C(=O)N[C@@H](CC(C)C)C(=O)N[C@H](C(=O)N[C@@H](CCCCNC(=O)COCCOCCNC(=O)COCCOCCNC(=O)CC[C@H](NC(=O)CCCCCCCCCCCCCCCCC(=O)O)C(=O)O)C(=O)N1CCC[C@H]1C(=O)N[C@@H](CCCNC(=N)N)C(=O)N[C@@H](Cc1ccc(O)cc1)C(N)=O)[C@@H](C)O` [SEQ ID NO: 41, N-epsilon33-[2-(2-{2-[2-(2-{2-[(S)-4-Carboxy-4-(17-carboxyheptadecanoylamino)butyrylamino]ethoxy}ethoxy)acetylamino]-ethoxy}ethoxy)acetyl][Leu17,Leu30,Lys33]hPP2-36] (H-PLEPVYPGDNATPEQLAQYAADLRRYINLLTK([AEEA-AEEA-γGlu-C18 diacid])PRY-NH2), the EC50 in data set [2] (setting [4]) and in data set [1] (setting [5]) was above 1000 nM throughout. Besides, the half-life is 105 h in data set [3] (iv, […]) and 93 h in data set [3] (male, sc, […]).
